The values below come from patent US20130095059A1, “INHALED NO DONOR KMUPS DERIVATIVE PREVENTING ALLERGIC PULMONARY VASCULAR AND BRONCHIAL INFLAMMATION VIA SUPPRESSED CYTOKINES, INOS AND INFLAMMATORY CELL COUNTS IN ASTHMA MODEL” (priority 2007, published 2013).

For experiment [1], the system named is IL-13. As to the kind of experiment: Ovalbumine model, plasma IL-13 (ELISA). It counts as in vivo, mice. Conditions: OVA-sens; inhalation 5 mM; OVA-sens alone 35 ± 6. How it is done:
(§1) In this long-term experiment, 6-8 week old BALB/c female mice were sensitized on days 1 and 8 by intra-peritoneal injection (i.p.) of ovalbumine (10 μg) (Sigma-Aldrich, Schnelldorf, Germany) adsorbed to 2 mg aluminum hydroxide (AlumInject; Perbio, Erembodegem, Belgium). Mice were divided into three groups. In Group 1, a control group was only exposed to saline nebulization by aerosol. The other 2 groups were subjected to ovalbumine (1%) nebulization. Before each challenge with ovalbumine, mice were either exposed to saline nebulization (Group 2) or KMUP-1 nebulization (5 mM) for 30 min by aerosol (Group 3).

Experiment [2] has as its system MMP-9. Put plainly: Ovalbumine model, MMP-9 expression, zymography and immunostaining. It counts as in vivo, BALB/c mice. Conditions: inhalation 5 mM; non-treatment allergic animal 100 %. How it is done:
as §1
The gelatinolytic activity of MMP-9 was measured by gelatin zymography as described previously (Cataldo D D, et al., 2002). Briefly, BALF (10 μl) was subjected to electrophoresis in 10% polyacrylamide gel containing gelatin (1 mg/ml). The gel was washed in 2.5% Triton X-100 to permit re-naturation of gelatinases and stained with Coomassie blue after overnight incubation. Destaining visualized clear zones of lysis against a blue background indicated the gelatinase activity (Hibbs, M S, et al., 1985).
The lung tissues were homogenized, washed with PBS and incubated in lysis buffer in addition to a protease inhibitor cocktail (Sigma, St. Louis, Mo.) to obtain extracts of lung proteins. A Western blot analysis was performed as described previously (Wu B N, et al., 2006). The samples were loaded to 10% SDS-PAGE gels and were separated at 120 V for 90 min. The blots were incubated with anti-eNOS antibody diluted at a ratio of 1:500, anti-sGCα1 antibody diluted at a ratio of 1:2000, anti-PKG antibody diluted at a ratio of 1:500, anti-VCAM-1 antibody diluted at a ratio of 1:500, anti-ICAM-1 antibody diluted at a ratio of 1:500, and anti-MMP-9 antibody diluted at a ratio of 1:600 overnight at 4° C. The membranes were stripped and re-blotted with anti-actin antibody (Sigma, St. Louis, Mo.) to verify the equal loading of protein in each lane.
Immunohistochemical analysis of eNOS enhancement by KMUP-1 was performed as follows. The lungs were perfused with saline followed by 10% formalin and then placed in 10% formalin for paraffin embedding. The lung tissues were cut into […] sections onto slides, dewaxed in 100% xylene, and then re-hydrated in graded alcohol solutions. Throughout the procedures, slides were washed as appropriate in PBS. Antigen retrieval was performed by microwave treatment for eNOS immunostaining. Sections were treated with 3% H2O2 (10 min) to inhibit endogenous peroxidases and incubated with normal serum (60 min) to reduce nonspecific binding of secondary antibodies. Sections were then incubated at 4° C. overnight with eNOS antibodies. After washing off unbounded primary antibodies, sections were incubated with secondary biotinylated antibodies against mouse or rabbit (DAKO Co., Japan) (60 min), followed by incubation in avidin/biotin/horseradish peroxidase complex (DAKO Co., Japan) (30 min) Subsequently, peroxidase activity was visualized by incubation (3 min) with 0.05% 3,3′-diaminobenzidine (DAKO Co., Japan), which gives a brown reaction product. The reaction was stopped by washing with water. The slides were counterstained with hematoxylin. For immunostaining of MMP-9 in lung tissue, the de-paraffinized 3-5 μm sections of lung tissue was performed as above eNOS, but using MMP-9 antibody.

Experiment [3] relates to BALF cells. As to the kind of experiment: Ovalbumine model, bronchoalveolar lavage cell counts. It counts as in vivo, BALB/c mice. Conditions: inhalation 5 mM; for Neurophil: OVA 1.0 ± 0.2; for Lymphocyte / monocyte: OVA 2.4 ± 0.3; for (Table 5) / Eosinophil: OVA 37.2 ± 2.8; for Total cells: OVA 65.3 ± 3.4. How it is done: as §1
After the sacrifice of mice, a cannula was placed in the trachea for bronchoalveolar lavage by gentle manual aspiration, using cold PBS-EDTA (0.05 mM, 1 ml) (Calbiochem, Darmstadt, Germany) as previously described (Cataldo D D, et al., 2002). The broncho alveolar lavage fluid (BALF) was centrifuged at 4° C. for 10 min (1200 rpm). The supernatant was frozen at −80° C. for protein assessment and the cell pellet was resuspended in PBS-EDTA (0.05 mM, 1 ml). Total cell counts were performed manually using a thoma chamber. The differential cell counts were performed using morphologic criteria on cytocentrifuged preparations (Cytospin) after staining with Diff-Quick (Dade, Belgium). Differential cell counts were performed by one blinded observer unaware of the experimental treatment.

In experiment [4] the test system is ROCKII. Put plainly: Protein expression (optical density %) after KMUPs salts, ROCKII. It counts as cell-based. Conditions: 10 μM, 120 min; without treatment control 100 %.
Experiment [5] deals with PDE-5A. Put plainly: Protein expression (optical density %) after KMUPs salts, PDE-5A. Conditions: 10 μM, 120 min; without treatment control 100 %. It counts as cell-based.
Experiment [6] deals with eNOS. As to the kind of experiment: Protein expression (optical density %) after KMUPs salts, eNOS. It counts as cell-based. Conditions: 10 μM, 120 min; without treatment control 100 %.
Experiment [7] has as its system IL-5. Put plainly: Ovalbumine model, plasma IL-5 (ELISA). It counts as in vivo, mice. Conditions: OVA-sens; inhalation 5 mM; OVA-sens alone 43 ± 6. As to the method:
as §1

Experiment [8] deals with iNOS. Put plainly: Ovalbumine model, iNOS expression. It counts as in vivo, BALB/c mice. Conditions: non-treatment allergic animal 100 %.
Experiment [9] relates to BALF cells. As to the kind of experiment: Ovalbumine model, bronchoalveolar lavage cell counts. It counts as in vivo, BALB/c mice. Conditions: oral 2.5 mg Kg^−1.
Experiment [10] relates to MMP-9. Put plainly: Ovalbumine model, MMP-9 expression, zymography and immunostaining. It counts as in vivo, BALB/c mice. Conditions: oral 2.5 mg Kg^−1; non-treatment allergic animal 100 %.

For the compound `Cl.Cn1c(=O)c2c(ncn2CCN2CCN(c3ccccc3Cl)CC2)n(C)c1=O` [KMUP-1 HCl, 7-[2-[4-(2-chlorophenyl)piperazinyl]ethyl]-1,3-dimethylxanthine HCl], the IL-13 in experiment [1] is 14 ± 5 pg/mL. The compound further came in with an MMP-9 in experiment [2] of 42 ± 6.3%. Also, in experiment [3], the Neurophil is 1.0 ± 0.2 × 10^4 cell/ml, the Lymphocyte was 1.5 ± 0.3 × 10^4 cell/ml, the monocyte is recorded as 1.5 ± 0.3 × 10^4 cell/ml and the “(Table 5)” value is given as 23.7 ± 2.8 × 10^4 cell/ml. For the same compound, in [3], the Eosinophil is on record as 23.7 ± 2.8 × 10^4 cell/ml and the Total cells is listed as 50.6 ± 2.4 × 10^4 cell/ml. Also, the “ROCKII protein expression, optical densitivity %” value in experiment [4] is recorded as 42 ± 6.3%. Further, the “PDE-5A protein expression, optical densitivity %” value in experiment [5] was 64 ± 4.5%. In addition, the “eNOS protein expression, optical densitivity %” value in [6] came to 155 ± 14.8%. The IL-5 in experiment [7] was found to be 31 ± 6 pg/mL. Also, in experiment [8] (inhalation 5 mM), the iNOS is reported as 55 ± 14.8%.

As for `Cn1c(=O)c2c(ncn2CCN2CCN(c3ccccc3Cl)CC2)n(C)c1=O.O=C(O)CC(O)(CC(=O)O)C(=O)O` [KMUP-1-citric acid, 7-[2-[4-(2-chlorobenzene)piperazinyl]ethyl]-1,3-dimethylxanthine-Citric acid], the “ROCKII protein expression, optical densitivity %” value in experiment [4] came out at 43 ± 3.8%. Besides, the “PDE-5A protein expression, optical densitivity %” value in experiment [5] is given as 66 ± 5.2%. The “eNOS protein expression, optical densitivity %” value in [6] turned out to be 152 ± 13.6%.

On to `Cn1c(=O)c2c(ncn2CCN2CCN(c3ccccc3Cl)CC2)n(C)c1=O.O=C(O)c1cccnc1` [KMUP-1-nicotinic acid, 7-[2-[4-(2-chlorobenzene)piperazinyl]ethyl]-1,3-dimethylxanthine-Nicotinic acid], for which, in [4], the “ROCKII protein expression, optical densitivity %” value came out at 41 ± 2.5%. The “PDE-5A protein expression, optical densitivity %” value in experiment [5] is listed as 62 ± 4.8%. For the same compound, the “eNOS protein expression, optical densitivity %” value in experiment [6] turned out to be 158 ± 12.4%.

Take `COc1ccccc1N1CCN(CCn2cnc3c2c(=O)n(C)c(=O)n3C)CC1.Cl` [KMUP-2 HCl, 7-[2-[4-(2-methoxybenzene)piperazinyl]ethyl]-1,3-dimethylxanthine hydrochloride]: the IL-13 in [1] came out at 15 ± 3 pg/mL. The compound also had an MMP-9 in experiment [2] of 40 ± 3.7%. In experiment [3], the Neurophil is listed as 1.0 ± 0.4 × 10^4 cell/ml, the Lymphocyte is reported as 1.2 ± 3.7 × 10^4 cell/ml, the monocyte is recorded as 1.2 ± 3.7 × 10^4 cell/ml and the “(Table 5)” value was 25 ± 2.2 × 10^4 cell/ml. Further, in experiment [3], the Eosinophil is 25 ± 2.2 × 10^4 cell/ml and the Total cells is given as 51.0 ± 0.4 × 10^4 cell/ml. Moreover, in [4], the “ROCKII protein expression, optical densitivity %” value was found to be 40 ± 3.7%. In addition, the “PDE-5A protein expression, optical densitivity %” value in experiment [5] is listed as 68 ± 5.3%. In [7], this compound registered an IL-5 of 32 ± 6 pg/mL. The same compound displayed an iNOS in [8] (inhalation 5 mM) of 47 ± 8.6%.

Consider `COc1ccccc1N1CCN(CCn2cnc3c2c(=O)n(C)c(=O)n3C)CC1.O=C(O)CC(O)(CC(=O)O)C(=O)O` [KMUP-2-citric acid, 7-[2-[4-(2-methoxybenzene)piperazinyl]ethyl]-1,3-dimethylxanthine-Citric acid], for which the “ROCKII protein expression, optical densitivity %” value in experiment [4] came out at 40 ± 3.7%. In [5], the “PDE-5A protein expression, optical densitivity %” value is recorded as 71 ± 5.4%.

Turning to `Cl.Cn1c(=O)c2c(ncn2CCN2CCN(c3ccc([N+](=O)[O-])cc3)CC2)n(C)c1=O` [KMUP-3 HCl, 7-[2-[4-(4-nitrobenzene)piperazinyl]ethyl]-1,3-dimethyl xanthine HCl], the MMP-9 in experiment [2] amounted to 44 ± 2.9%; in experiment [10], 43 ± 1.6%. The Neurophil is 1.0 ± 0.3 × 10^4 cell/ml in [3] and 1.1 ± 0.3 × 10^4 cell/ml in experiment [9] (OVA 1.0 ± 0.2). Further, the Lymphocyte in experiment [3] was 1.3 ± 0.6 × 10^4 cell/ml; in [9] (OVA 2.4 ± 0.3), 1.7 ± 2.8 × 10^4 cell/ml. For the same compound, the monocyte is 1.3 ± 0.6 × 10^4 cell/ml in experiment [3] and 1.7 ± 2.8 × 10^4 cell/ml in experiment [9] (OVA 2.4 ± 0.3). For the same compound, the “(Table 5)” value in experiment [3] was 24 ± 3.5 × 10^4 cell/ml; in experiment [9] (OVA 37.2 ± 2.8), 25 ± 2.5 × 10^4 cell/ml. For the same compound, the Eosinophil in experiment [3] is reported as 24 ± 3.5 × 10^4 cell/ml; in [9] (OVA 37.2 ± 2.8), 25 ± 2.5 × 10^4 cell/ml. Besides, the Total cells was 52.1 ± 0.2 × 10^4 cell/ml in [3] and 51.2 ± 0.3 × 10^4 cell/ml in [9] (OVA 65.3 ± 3.4). The “ROCKII protein expression, optical densitivity %” value in [4] worked out at 44 ± 2.9%. Also, the “PDE-5A protein expression, optical densitivity %” value in [5] is recorded as 63 ± 5.2%. Moreover, the “eNOS protein expression, optical densitivity %” value in experiment [6] was found to be 148 ± 7.5%. The values for the iNOS in [8] (inhalation 5 mM) and in [8] (oral 2.5 mg Kg^−1) were 48 ± 7.5% and 45 ± 7.5%, respectively.

As for `Cn1c(=O)c2c(ncn2CCN2CCN(c3ccc([N+](=O)[O-])cc3)CC2)n(C)c1=O.O=C(O)c1cccnc1` [KMUP-3-nicotinic acid, 7-[2-[4-(4-nitrobenzene)piperazinyl]ethyl]-1,3-dimethylxanthine-Nicotinic acid], the “ROCKII protein expression, optical densitivity %” value in experiment [4] is 43 ± 1.6%. The “PDE-5A protein expression, optical densitivity %” value in experiment [5] was 60 ± 4.1%. For the same compound, in experiment [6], the “eNOS protein expression, optical densitivity %” value amounted to 145 ± 7.5%.

On to `Cn1c(=O)c2c(ncn2CCN2CCN(c3ccccc3[N+](=O)[O-])CC2)n(C)c1=O.O=C(O)CC(O)(CC(=O)O)C(=O)O` [KMUP-4-citric acid, 7-[2-[4-(2-nitrobenzene)piperazinyl]ethyl]-1,3-dimethylxanthine-Citric acid], for which, in [4], the “ROCKII protein expression, optical densitivity %” value is 56 ± 3.4%. Also, in [5], the “PDE-5A protein expression, optical densitivity %” value is on record as 78 ± 3.6%. The “eNOS protein expression, optical densitivity %” value in [6] came out at 131 ± 6.7%.
